Test results from the pKa sets of Baltruschat and Czodrowski (2020).

Settings: acidic group

Row | Structure (SMILES) | pKa
1 | C/C=C/C1=C(O)C(=O)c2ccccc2C1=O | 4.78
2 | Oc1c(I)cc(I)c2cccnc12 | 8
3 | Fc1cccc(NC(=S)c2ccc(Cl)cc2)c1 | 10.2
4 | O=C1/C(=N\O)C=C(S(=O)(=O)[O-])c2cn[nH]c21 | 6.35
5 | NNC(=O)C1(F)C(F)(F)C(F)(F)C(F)(F)C(F)(F)C1(F)F | 9.14
6 | SCCNc1ccccc1 | 9.5
7 | [NH3+]CCC(=O)N[C@@H](Cc1c[nH]c[nH+]1)C(=O)O | 2.7
8 | COc1c(O)ccc2c1C[N+]1(C)CCc3cc4c(cc3[C@@H]1C2)OCO4 (stereo partly specified) | 8.45
9 | COC(=O)[n+]1ccc(C)cc1 | 6.15
10 | Cc1ccc(O)c([N+](=O)[O-])c1 | 7.4
11 | Oc1cc[n+](O)cc1 | 2.4
12 | CC(C)(C)C(=O)NC(O)C(Cl)(Cl)Cl (stereo unspecified) | 14.7
13 | c1cncc(-c2nc3ccccc3[nH]2)c1 | 11.2
14 | C=CC[NH2+]CCCCCCCCCCC(=O)O | 4.7
15 | Nc1ccc(S(=O)(=O)Nc2ncccn2)cc1 | 6.42
16 | Oc1ccc(Nc2ccc(O)cc2)cc1 | 9.44
17 | O=[N+]([O-])Nc1ccccc1 | 4.74
18 | C/C(=N/c1ccccc1O)c1ccccc1O | 9.23
19 | O=C([O-])CCS | 10.3
20 | CCC(C(=O)O)C(=O)N1CCCCC1 (stereo unspecified) | 3.86
21 | O=C(O)[C@H]1CC[C@H](O)CC1 | 4.68
22 | O=C1NC(C(=O)O)CC1O (stereo unspecified) | 3.8
23 | CC(C)CNC=S | 12.8
24 | Cc1cccc(-c2nnn[nH]2)c1 | 4.15
25 | Cc1nc(NS(=O)(=O)c2ccc(N)cc2)sc1C | 6.97
26 | O=C1C=C(S(=O)(=O)[O-])/C(=N/O)c2[nH]ncc21 | 7.15

Row | Structure (SMILES) | pKa
27 | O=C(O)C1(O)CCCC1 | 4.11
28 | CNc1nc(O)[n+]([C@@H]2C[C@@H](O)[C@H](CO)O2)cc1C | 4.04
29 | C[NH+](C)Cc1cc(Cl)ccc1O | 8.02
30 | O=C1c2ccccc2C(=O)N1O | 6.13
31 | FC(F)(F)c1ncnc2nc[nH]c12 | 7.35
32 | COC(=O)c1ccccc1-n1nc(O)cc1C | 12.3
33 | Oc1cc(-c2ccccc2)nn1-c1ccccc1 | 12.2
34 | COP(=O)([O-])NS(C)(=O)=O | 6.55
35 | C#CCCCCC(=O)O | 4.58
36 | O=c1ccc(O)ccc1[O-] | 10.1
37 | NC(=O)[C@H]1CC(=O)N[C@@H]1C(=O)O | 3
38 | Cn1cc(O)[nH+]c1N | 4.9
39 | O=C1NC(=S)NC12CCCCC2 | 8.79
40 | CC(=O)[n+]1ccc(N)cc1 | 9.15
41 | O=C(O)C[Se]c1cccc([N+](=O)[O-])c1 | 3.55
42 | [NH-]S(=O)(=O)c1nnc(Nc2ccccc2)s1 | 11.1
43 | CCCCC1(CC)C(=O)[N-]C(=S)NC1=O | 12.1
44 | CC(C)CCP(=O)(O)CCC(C)C | 3.26
45 | N#C/C(=C(\[O-])O)c1ccccc1 | 8.7
46 | CC1=CC(=O)C=C(C)C1=NO | 8.04
47 | CCN(CC)C(=S)NC(=O)c1ccccc1 | 8.45
48 | Nc1ccc(S(=O)(=O)Nc2ccncn2)cc1 | 6.17
49 | CC(=O)NC(CS)C(=O)O (stereo unspecified) | 3.08
50 | CC(C)c1ccc(C(=O)O)cc1 | 4.31
51 | [O-]/C(O)=C1\SCc2ccccc21 | 12.8
52 | O=C(O)C1=C(CO)CC1 | 4.16

Row | Structure (SMILES) | pKa
53 | Cn1cnc2nc([O-])nc(O)c21 | 10.6
54 | O=C(O)[C@@H]1O[C@H](Oc2cccc3ccc[nH+]c23)[C@@H](O)[C@H](O)[C@H]1O | 3.01
55 | Cc1ccc2c(c1O)-c1c-2ccc(C)c1O | 8.04
56 | O=C(O)C(c1ccc(-c2ccccc2)cc1)C1(O)CCCCC1 (stereo unspecified) | 3.59
57 | CC(=O)CC(=S)Nc1ccc(C)cc1 | 7.65
58 | Cc1cnc(NS(=O)(=O)c2ccc(N)cc2)nc1C | 6
59 | COC(=O)CC(C)=O | 10.6
60 | CCCC(=O)NO | 9.48
61 | O=[N+]([O-])c1ccc(NC=S)cc1 | 10.1
62 | COC(=O)c1cc(O)c(O)c(O)c1C[NH+](C)C | 6.8
63 | CC(C)(O)C(=O)O | 4.04
64 | C[Si](C)(C)C#CC(=O)O | 2.21
65 | NC(=O)c1cc(-c2ccccc2)nnc1NCCN1CCOCC1 | 6.85
66 | N#Cc1cccc(NS(=O)(=O)c2ccccc2)c1 | 7.15
67 | Cc1cccc(O)c1C(=O)O | 3.35
68 | CCCC(=O)c1cc(C(C)=O)n[nH]1 | 9.28
69 | Cc1cc(O)ccc1C(C)C | 10.3
70 | ONc1ccccc1 | 10.7
71 | Cc1cc(/N=N/c2ccc(S(N)(=O)=O)cc2)cc(C(=O)[O-])c1O | 10.2
72 | COc1cc2ccc(=O)oc2cc1O | 6.5
73 | Oc1ccccc1O | 9.33
74 | Nc1ccc(S(=O)(=O)Nc2nccs2)cc1 | 7.25
75 | [NH3+]C[C@H](O)C(=O)O | 2.78
76 | Ic1ccc(-c2nnn[nH]2)cc1 | 3.88

Same assay, conditions: basic group

Row | Structure (SMILES) | pKa
77 | O=C([O-])c1c2ccccc2nc2ccccc12 | 5
78 | COc1nccc2ccccc12 | 3.05
79 | Cn1c(=S)ccc2ccccc21 | -1.6
80 | CNCCc1ccc(O)cc1 | 9.36
81 | CCC(N)(CO)CO | 8.8
82 | Oc1c(I)cc(I)c2cccnc12 | 2.7
83 | [NH3+]Cc1ccccn1 | 3.1
84 | Cc1ncnc2ccccc12 | 2.52
85 | CN(CO)c1ccccc1 | 3.72
86 | CCCN1CCCCC1 | 10.4
87 | SCCNc1ccccc1 | 3.78
88 | NCC1CCCCC1 | 10.5
89 | N[C@H]1CCCC[C@@H]1N | 9.75
90 | Cc1ccc2c(c1)CC(=O)CC2 | 12.9
91 | CC(=O)Nc1ccc(S(=O)(=O)Nc2ccccn2)cc1 | 2.03
92 | CN(C)c1ccc2cc3ccc(N(C)C)cc3[nH+]c2c1 | 0.4
93 | NC(Cc1c[nH]c2ccccc12)C(=O)[O-] (stereo unspecified) | 9.44
94 | CN1C=C(C#N)C=CC1 | 2.7
95 | Cc1cc(C)c(CO)c(C)n1 | 7.1
96 | CCN(C)N | 7.3
97 | CN(C1=NCCO1)c1ccccc1 | 8.51
98 | CC(=O)Nc1cccnc1 | 4.44
99 | c1ccc2[nH]c(-c3ccncc3)nc2c1 | 10.8
100 | C[NH2+]CCN(C)CCN | 9.68

Row | Structure (SMILES) | pKa
101 | c1cncc(-c2nc3ccccc3[nH]2)c1 | 4.53
102 | CNNC1CCN(C)CC1 | 8.7
103 | Nc1ccc(S(=O)(=O)Nc2ncccn2)cc1 | 2
104 | COC(=O)[C@@H]([NH3+])Cc1c[nH]cn1 | 5.38
105 | Cc1ccc(C2CCC[NH+]2C)cn1 (stereo unspecified) | 3.78
106 | C/C(=N/c1ccccc1O)c1ccccc1O | 5.14
107 | CC(O)CN(Cc1ccccc1)CC(C)O (stereo unspecified) | 7.5
108 | N#CC(CCN1CCCCC1)(c1ccccc1)c1ccccc1 | 8.07
109 | NNC=O | 2.81
110 | c1ccc(C2=NCCC2)cc1 | 7.2
111 | FC(F)(F)c1ccc2cccnc2c1 | 3.16
112 | CN[C@H]1C[C@]1(C)[NH2+]C | 5.52
113 | Nc1ccc(-c2ncc(-c3ccccc3)o2)cc1 | 3.01
114 | C=C(C)C(=O)OCCCN | 9.62
115 | O=C([O-])[C@@H](NCCN[C@@H](C(=O)[O-])c1ccccc1[O-])c1ccccc1[O-] | 11.9
116 | C[NH2+]CCCNc1c2ccccc2nc2cccc([N+](=O)[O-])c12 | 6.2
117 | CCOc1ccc2nccc([C@@H](O)[C@@H]3C[C@H]4CC[NH+]3C[C@@H]4CC)c2c1 | 4.05
118 | c1cnc2c(c1)c1c(c3cccnc32)CCCC1 | 5.3
119 | Clc1ccc(C2CN2)cc1 (stereo unspecified) | 6.18
120 | Clc1ccc(CNc2ncnc3[nH]ncc23)cc1 | 3.96
121 | C/C(N)=N/O | 5.9
122 | NC(CCc1ccc([N+](=O)[O-])cc1)C(=O)[O-] (stereo unspecified) | 9.1
123 | C[NH+](C)CCCNc1ccnc2cccc([N+](=O)[O-])c12 | 6.39
124 | COc1ccc(/N=C/N(C)C)cc1 | 9.35

Row | Structure (SMILES) | pKa
125 | Cc1cc(C)c2nccc(NCCC[NH+](C)C)c2c1[N+](=O)[O-] | 6.37
126 | C=CCN(C)CCOC(=O)C(=C)C | 7.39
127 | CCCCCNCc1ccc(C)cc1 | 10.1
128 | CN1CC=CC1c1cccnc1 (stereo unspecified) | 7.04
129 | C=C[C@]1(O)CN2CC[C@H]1C[C@@H]2[C@@H](O)c1ccnc2ccc(OC)cc12 | 7.24
130 | [NH3+]c1ccc(-c2cnc(-c3ccccc3)o2)cc1 | 0.5
131 | c1c[nH]c(Cc2ncc[nH]2)n1 | 7.27
132 | c1cncc(C2=NCCC2)c1 | 8.77
133 | CC(C[NH3+])/C(N)=N/O (stereo unspecified) | 3.65
134 | CC1NCCC[NH2+]1 | 7.19
135 | C[C@H]1CCCC[C@@H]1N | 10.6
136 | CN1CCC=C(C#N)C1 | 6.35
137 | CCCCOC(=O)c1ccc(N)cc1 | 2.47
138 | C[NH+](C)CCCNc1ccnc2c([N+](=O)[O-])cccc12 | 6.91
139 | CCN1CCCC1 | 11
140 | Nc1ccc2cc([N+](=O)[O-])ccc2c1 | 2.9
141 | NCCCBr | 8.93
142 | Cc1ccc2ccc(C)nc2c1 | 5.01
143 | NCc1ccc(O)c(O)c1 | 8.6
144 | Nc1ccc(S(=O)(=O)Nc2ccncn2)cc1 | 1.3
145 | Cn1c[nH+]c2cccc(N)c21 | 2.36
146 | O=C1[C@@H]2C[C@@H](CN3CCCC[C@@H]23)[C@H]2CCCCN12 | 7.7
147 | CC[NH+](CCO)c1ccc(N)cc1 | 3.04
148 | O=[N+]([O-])c1ccc([O-])c(CN2CCOCCOCCOCCOCCOCC2)c1 | 9.59

Row | Structure (SMILES) | pKa
149 | C[NH+]1CCN(C(c2ccccc2)c2ccc(Cl)cc2)CC1 (stereo unspecified) | 2.43
150 | NCCCCC(=O)[O-] | 10.8
151 | C1CCc2nnc3c(c2CC1)CCCC3 | 6.03
152 | c1[nH]c(Cc2c[nH]c(Cc3[nH]cc(Cc4c[nH]c[nH+]4)[nH+]3)n2)c[nH+]1 | 3.58
153 | C/C(CN(C)C)=N\[O-] | 10.9
154 | C[C@H]1C[C@@]23[C@@H]4CCCN2CCC[C@H]3[C@@H](O)C[C@H]4C1=O | 9.13
155 | c1ccc(-c2cc(-c3ccccc3)c(NCC[NH+]3CCOCC3)nn2)cc1 | 3.36
156 | CCc1nc2ccccc2[nH]1 | 6.2
157 | C#CCN1CCN(C(=O)OCC)CC1 | 5.44
158 | c1ccc(Oc2ccncc2)cc1 | 6.16
159 | CC(=O)/C(CN1CCCCC1)=N\[O-] | 10.7
160 | N#CCC(N)c1ccccc1 (stereo unspecified) | 6.7
161 | Nc1nc([O-])c2ncn([C@H]3O[C@@H](CO)[C@H](O)[C@@H]3O)c2n1 | 9.41
162 | ONc1ccccc1 | -0.32
163 | CCOC(=O)c1cc(-c2ccccc2)nnc1NCCN1CCOCC1 | 6.67
164 | Brc1cccnc1 | 2.94
165 | NCCCCc1ccncc1 | 10.2
166 | Nc1ccc(S(=O)(=O)Nc2nccs2)cc1 | 2.35
167 | O=C(CCCCN1CCOCC1)c1ccccc1 | 7.5
168 | NNC(=O)c1cc[nH+]cc1 | 1.67
169 | CCCCCCCCN(CC(C)O)CC(C)O (stereo unspecified) | 8.3
170 | c1ccc(C2CN2)cc1 (stereo unspecified) | 6.47
171 | CCC(N)CCCl (stereo unspecified) | 8.53
